System: live anesthetized rats
Settings: rat, in vivo

## CNCC(O)c1ccc(O)c(O)c1 (stereo not shown) [Adrenalin]
  rhythm disturbances: induced rhythm disturbances

Source: patent US20140323414A1 (priority 2011, published 2014)
